The values that follow come from publication PMC11876601 (Molecular Systems Biology, 2025).

One assay concerns AsPC-1 cells. Briefly: Cell proliferation assay, chemodrug + ATR inhibitor (Incucyte confluence, 72 h).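 As to all read-outs here: underlying read-out for every value is AsPC-1 confluence after 72 h incubation at 37 °C and 5% CO2, divided by that well's starting confluence.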 The settings on record: for Curve bottom / Curve slope / Curve top: fitted dose-response curve; for Curve bottom / Curve top: relative response; for Raw data (confluence at 72 h/confluence at 0 h): Berzosertib experiment; for EC50: Homo sapiens.
The subject of another assay is PANC-1 cells. The experiment in a line: Cell proliferation assay, GEM + ATR inhibitor (Incucyte confluence, 72 h).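 As to EC50: in combination experiments GEM is titrated while ATRi is held at a fixed sub-EC50 dose.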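 As to all read-outs here: PANC-1 confluence at 72 h taken as raw values, not normalized to starting confluence, with each experiment run in triplicate.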 The settings on record: for EC50: Homo sapiens; for Curve bottom / Curve top: PANC-1, plateau of fitted curve, ratio drug/vehicle confluence.
In a further assay the test system is MiaPaCa-2. The experiment in a line: cells. Set-up: ATPlite luminescence viability of PDAC cell lines, 11-dose single-agent curves, 4-parameter fit. The following applies: Homo sapiens, MIA PaCa-2, 72 h, read-out: EC50 [nM]. A digest of the protocol:
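cells (1000 to 5000 per well) seeded 24 h before drug addition in a combination screen at 0.2% final DMSO. Controls were drug-free wells (negative) and 5 µM staurosporine (positive).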

Setting [1] is: AsPC1, Experiment GEM+ATRi_dose1.
Setting [2] is: AsPC1, Experiment GEM+ATRi_dose2.
[3] abbreviates: AsPC1, Experiment GEM+ATRi_dose3.

“And” between values parts separate entries of the source, which are not always exact repeats. Equal values may be shown once. Read-outs that look alike come from different tables or passages of the source.

Protocol for AsPC-1 cells: (§1) Cells were seeded at 5000 cells/well into 96-well flat bottom plates (Eppendorf) and allowed to attach overnight. […] Cells were incubated for 72 h at 37 °C and 5% CO2. Cell confluence readouts at 72 h were either normalized to their initial confluence using the Incucyte software (AsPC-1) or used without prior normalization (all others). […] Each experiment was performed in triplicates, the data was plotted as mean ± standard deviation (s.d.).
Protocol for PANC-1 cells: as §1

As to `CNCc1ccc(-c2cc(-c3nc(-c4ccc(S(=O)(=O)C(C)C)cc4)cnc3N)on2)cc1` [Berzosertib], the Curve bottom in the assay with AsPC-1 cells (AsPC1, Experiment ATRi (ATR inhibitor alone)) was 1.08 and 1.02 and 1.03; in the assay on AsPC-1 cells (setting [1]), 1.02 and 0.99 and 0.96; in the assay on AsPC-1 cells (setting [2]) it was 1.02 and 0.89 and 0.87; in the assay with AsPC-1 cells (setting [3]) it was 1.02 and 0.71 and 0.76; in the assay on PANC-1 cells (experiment ATRi (ATR inhibitor alone)), 1.01 and 0.99; in the assay with PANC-1 cells (experiment GEM+ATRi_dose3), 0.93 and 0.91. Also, the Curve slope is 1.49 and 1.39 and 2.10 in the assay with AsPC-1 cells (setting [1]); 1.48 and 2.60 and 1.95 in the assay with AsPC-1 cells (setting [3]). For the same molecule, the Curve top in the assay with AsPC-1 cells (setting [1]) is 0.52 and 0.41 and 0.43; with AsPC-1 cells (setting [2]), 0.47 and 0.41; in the assay on AsPC-1 cells (setting [3]), 0.44 and 0.38 and 0.37; with PANC-1 cells (experiment GEM+ATRi_dose1), 0.60 and 0.57; in the assay on PANC-1 cells (experiment GEM+ATRi_dose2), 0.57 and 0.55; in the assay with PANC-1 cells (experiment GEM+ATRi_dose3), 0.55 and 0.54. Besides, the Response was 1.96 in the assay with AsPC-1 cells (AsPC1, GEM 100 nM + ATRi 30 nM); 1.76 in the assay with AsPC-1 cells (AsPC1, GEM 300 nM + ATRi 30 nM); 1.64 in the assay on AsPC-1 cells (AsPC1, GEM 1000 nM + ATRi 30 nM); 1.69 in the assay with AsPC-1 cells (AsPC1, GEM 3000 nM + ATRi 30 nM); 3.26 and 3.50 and 3.35 in the assay with AsPC-1 cells (GEM 0 nM, ATRi 30 nM); 3.38 and 2.28 and 2.67 in the assay with AsPC-1 cells (GEM 0 nM, ATRi 300 nM). The Response in the assay on AsPC-1 cells (GEM 1 nM + ATRi 30 nM) is 3.40 and 3.47 and 3.32; in the assay with AsPC-1 cells (GEM 1 nM + ATRi 100 nM), 3.25 and 2.45 and 2.30; with AsPC-1 cells (GEM 1 nM + ATRi 300 nM), 3.17 and 2.72 and 2.68; in the assay with AsPC-1 cells (GEM 3 nM + ATRi 30 nM), 3.21 and 3.37 and 3.20; with AsPC-1 cells (GEM 3 nM + ATRi 100 nM), 3.16 and 3.42 and 3.23; in the assay on AsPC-1 cells (GEM 3 nM + ATRi 300 nM), 3.33 and 2.50 and 2.49. For the same molecule, the Response in the assay on AsPC-1 cells (GEM 10 nM + ATRi 30 nM) is 3.02 and 3.24 and 3.22; in the assay with AsPC-1 cells (GEM 10 nM + ATRi 100 nM) it was 2.95 and 3.25 and 2.97; in the assay with AsPC-1 cells (GEM 10 nM + ATRi 300 nM), 2.69 and 2.35 and 2.32; with AsPC-1 cells (GEM 30 nM + ATRi 30 nM), 2.26 and 2.69 and 2.57; in the assay with AsPC-1 cells (GEM 30 nM + ATRi 100 nM), 2.27 and 2.08 and 1.96; with AsPC-1 cells (GEM 30 nM + ATRi 300 nM) it was 2.06 and 1.65 and 1.60. The Response with AsPC-1 cells (GEM 100 nM + ATRi 30 nM) is 1.68; in the assay on AsPC-1 cells (GEM 100 nM + ATRi 100 nM) it was 1.81 and 1.49 and 1.48; in the assay with AsPC-1 cells (GEM 100 nM + ATRi 300 nM), 1.53 and 1.40 and 1.31; with AsPC-1 cells (GEM 300 nM + ATRi 30 nM), 1.65 and 1.49; in the assay with AsPC-1 cells (GEM 300 nM + ATRi 100 nM), 1.60 and 1.52 and 1.44; in the assay with AsPC-1 cells (GEM 300 nM + ATRi 300 nM), 1.48 and 1.38 and 1.24. The Response is 1.43 and 1.48 in the assay on AsPC-1 cells (GEM 1000 nM + ATRi 30 nM); 1.53 and 1.41 and 1.39 in the assay on AsPC-1 cells (GEM 1000 nM + ATRi 100 nM); 1.41 and 1.36 and 1.30 with AsPC-1 cells (GEM 1000 nM + ATRi 300 nM); 1.40 and 1.48 with AsPC-1 cells (GEM 3000 nM + ATRi 30 nM); 1.58 and 1.38 and 1.33 with AsPC-1 cells (GEM 3000 nM + ATRi 100 nM); 1.46 and 1.27 in the assay with AsPC-1 cells (GEM 3000 nM + ATRi 300 nM). The “Raw data (confluence at 72 h/confluence at 0 h)” value (“Raw data” for short) in the assay on AsPC-1 cells (replicate R2, titrated drug dose 100 nM) stood at 1.63; in the assay with AsPC-1 cells (replicate R2, titrated drug dose 300 nM) it was 3.32; in the assay on AsPC-1 cells (replicate R2, titrated drug dose 1000 nM), 1.81; with AsPC-1 cells (replicate R2, titrated drug dose 3000 nM), 0.95; with AsPC-1 cells (replicate R2, titrated drug dose 10000 nM), 1.02; with AsPC-1 cells (replicate R3, titrated drug dose 3 nM) it was 3.53. In addition, the “Raw data” value with AsPC-1 cells (replicate R3, titrated drug dose 10 nM) is recorded as 3.58; with AsPC-1 cells (replicate R3, titrated drug dose 30 nM) it was 3.44; in the assay on AsPC-1 cells (replicate R3, titrated drug dose 100 nM) it was 1.82; in the assay with AsPC-1 cells (replicate R3, titrated drug dose 300 nM) it was 3.31; in the assay with AsPC-1 cells (replicate R3, titrated drug dose 1000 nM) it was 1.82; with AsPC-1 cells (replicate R3, titrated drug dose 3000 nM), 0.98. In addition, the “Raw data” value in the assay with AsPC-1 cells (replicate R3, titrated drug dose 10000 nM) was found to be 1.08; in the assay on AsPC-1 cells (replicate R1, titrated drug dose 3 nM), 3.58; in the assay with AsPC-1 cells (replicate R1, titrated drug dose 10 nM), 3.42; in the assay on AsPC-1 cells (replicate R1, titrated drug dose 30 nM) it was 3.67; with AsPC-1 cells (replicate R1, titrated drug dose 100 nM), 3.44; in the assay with AsPC-1 cells (replicate R1, titrated drug dose 300 nM), 3.48. For the same molecule, the “Raw data” value in the assay on AsPC-1 cells (replicate R1, titrated drug dose 1000 nM) was found to be 1.39; in the assay with AsPC-1 cells (replicate R1, titrated drug dose 3000 nM) it was 1.11; in the assay on AsPC-1 cells (replicate R1, titrated drug dose 10000 nM), 1.24; in the assay on AsPC-1 cells (replicate R2, titrated drug dose 3 nM), 3.47; with AsPC-1 cells (replicate R2, titrated drug dose 10 nM) it was 3.62; in the assay on AsPC-1 cells (replicate R2, titrated drug dose 30 nM) it was 3.68. Further, the EC50 is 647 nM in the assay with AsPC-1 cells (ASPC1, 72 h, AsPC1, Experiment ATRi (ATR inhibitor alone), single replicates R1-R3); 766 nM in the assay with AsPC-1 cells (ASPC1, 72 h, read-out: EC50 (cell growth), ATR inhibitor as single agent); 719 nM with AsPC-1 cells (ASPC1, 72 h, read-out: EC50 mean [nM], AsPC1, Experiment ATRi (ATR inhibitor alone), mean of replicates); 646 nM in the assay with AsPC-1 cells (ASPC1, 72 h, read-out: pEC50, AsPC1 (converted), Experiment ATRi (ATR inhibitor alone), single replicates R1-R3); 719 nM with AsPC-1 cells (ASPC1, read-out: EC50 mean [nM], AsPC1, Experiment ATRi (ATR inhibitor alone), mean of replicates); 22200 nM in the assay on PANC-1 cells (PANC-1, 72 h, read-out: EC50 mean [nM], PANC-1, experiment ATRi (ATR inhibitor alone), mean of replicates). The EC50 in the assay on PANC-1 cells (PANC-1, PANC-1, experiment ATRi (ATR inhibitor alone), replicates R1-R3) was determined as 31800 nM; with PANC-1 cells (PANC-1, PANC-1, experiment GEM+ATRi_dose1, replicates R1-R3) it was 4.75 nM; with PANC-1 cells (PANC-1, PANC-1, experiment GEM+ATRi_dose2, replicates R1-R3) it was 6.05 nM; with PANC-1 cells (PANC-1, PANC-1, experiment GEM+ATRi_dose3, replicates R1-R3), 3.25 nM; in the assay with PANC-1 cells (PANC-1, read-out: EC50 mean [nM], PANC-1, experiment ATRi (ATR inhibitor alone), mean of replicates), 22200 nM; in the assay on PANC-1 cells (PANC-1, read-out: EC50 mean [nM], PANC-1, experiment GEM+ATRi_dose1, mean of replicates), 4.43 nM. Moreover, the EC50 in the assay with PANC-1 cells (PANC-1, read-out: EC50 mean [nM], PANC-1, experiment GEM+ATRi_dose2, mean of replicates) is 5.92 nM; in the assay on PANC-1 cells (PANC-1, read-out: EC50 mean [nM], PANC-1, experiment GEM+ATRi_dose3, mean of replicates), 4.05 nM; in the assay on PANC-1 cells (PANC-1, read-out: pEC50, PANC-1 (converted), experiment ATRi (ATR inhibitor alone), -log10 of EC50 [M]) it was 31600 nM; with PANC-1 cells (PANC-1, read-out: pEC50, PANC-1 (converted), experiment GEM+ATRi_dose1, replicates R1-R3, -log10 of EC50 [M]), 4.79 nM; in the assay on PANC-1 cells (PANC-1, read-out: pEC50, PANC-1 (converted), experiment GEM+ATRi_dose2, replicates R1-R3, -log10 of EC50 [M]), 6.03 nM; with PANC-1 cells (PANC-1, read-out: pEC50, PANC-1 (converted), experiment GEM+ATRi_dose3, replicates R1-R3, -log10 of EC50 [M]) it was 3.24 nM.
Regarding `COc1cc(N2CCC(N3CCN(C)CC3)CC2)ccc1Nc1ncc(Cl)c(Nc2ccccc2P(C)(C)=O)n1` [Brigatinib], the EC50 with MiaPaCa-2 was determined as 177 nM.
Still for that read-out and setting: the same measure for `CCN1CCN(Cc2ccc(Nc3ncc(F)c(-c4cc(F)c5nc(C)n(C(C)C)c5c4)n3)nc2)CC1` [Abemaciclib]: 82.2 nM.
Regarding `C[C@]12O[C@H](C[C@]1(O)CO)n1c3ccccc3c3c4c(c5c6ccccc6n2c5c31)CNC4=O` [Lestaurtinib], in the assay on MiaPaCa-2, the EC50 turned out to be 275 nM.
